Source: PMC5078989, “Targeted inhibition of the COP9 signalosome for treatment of cancer” (Nature Communications, 2016)

What was measured:
human MMP13 = molecular target: T1, human MMP13 (Homo sapiens, UniProt P45452); assay: Selectivity assay MMP13; format: biochemical
T1 construct: human MMP13 (Uniprot P45452), amino acids 103–274; made in house; host or cells: E. coli
Procedure: (§1) All biochemical assays were performed at room temperature in 384-well plates in a total volume of 25.25 μl per well. Test compounds were dissolved in 90% (v/v) DMSO/water. For the assays, 250 nl of compound solution was added per well, followed by addition of 12.5 μl protease solution. After 70 min of pre-incubation at room temperature, the reactions were started by addition of 12.5 μl substrate solution and followed either by measuring fluorescence intensity (rhodamine 110-based substrates) or by fluorescence lifetime (PT14-based substrates). The effect of compound on enzymatic activity was obtained from the linear part of the progress curves and determined after 1 h (t=60 min). The final compound concentrations ranged from 100 μM to 1 nM.
(§2) Matrix metalloproteinases. Human MMP1 (Uniprot P03956), amino acids 1–469, expressed in and purified from stable transfected C127 cells; human MMP2 (Uniprot P08253), amino acids 1–660, expressed in and purified from insect cells (baculovirus expression system); human MMP8 (Uniprot P22894), amino acids 100–262, expressed in and purified from E. coli; human MMP9 (Uniprot P14780), amino acids 1–707, expressed in and purified from stable transfected 293 cells; human MMP12 (Uniprot P39900), amino acids 101–268, expressed in and purified from E. coli; human MMP13 (Uniprot P45452), amino acids 103–274, expressed in and purified from E. coli; human MMP14 (Uniprot P50281), amino acids 112–284, expressed in and purified from E. coli; human ADAM17 (Uniprot P78536), amino acids 1–670, expressed in and purified from insect cells (baculovirus expression system); substrate: Ac-C(PT14)-[…]-NH2 purchased from Biosyntan (product number 8069); enzyme concentrations: 3 nM (MMP1), 1 nM (MMP2), 3 nM (MMP8), 0.1 nM (MMP9), 0.5 nM (MMP12), 0.13 nM (MMP13), 0.005 nM (MMP14), 30 nM (ADAM17); substrate concentration: 0.8 μM; assay buffer: 100 mM Tris, pH 7.4, 100 mM NaCl, 10 mM CaCl2, 10 μM ZnCl2, 0.075% (v/v) Brij35.

human MMP14 = molecular target: T2, human MMP14 (Homo sapiens, UniProt P50281); assay: Selectivity assay MMP14; format: biochemical
T2 construct: human MMP14 (Uniprot P50281), amino acids 112–284; made in house; host or cells: E. coli
Procedure: as §1, §2

Row | IC50 (human MMP13) [µM] | IC50 (human MMP14) [µM] | SMILES
1 | > 100 | 15.4 ± 0.02 | COCc1ccccc1NCc1ccc([C@H]2[C@@H](O)CCCc3cncn32)c(-c2ccccc2Cl)c1 [CSN5i-2, (5S,6S)-5-(2′-chloro-5-(((2-(methoxymethyl)phenyl)amino)methyl)-[1,1′-biphenyl]-2-yl)-6,7,8,9-tetrahydro-5H-imidazo[1,5-a]azepin-6-ol]
2 | > 100 | 11 ± 1 | COCc1ccccc1NCc1ccc([C@@H]2[C@H](O)CCCc3cncn32)c(-c2ccccc2Cl)c1 [CSN5i-2e, (5R,6R)-5-(2′-chloro-5-(((2-(methoxymethyl)phenyl)amino)methyl)-[1,1′-biphenyl]-2-yl)-6,7,8,9-tetrahydro-5H-imidazo[1,5-a]azepin-6-ol]

Row | SMILES | IC50 (human MMP13) [µM] | IC50 (human MMP14) [µM]
3 | CC(C)n1nc(C(F)F)cc1C(=O)Nc1ccc([C@H]2[C@@H](O)CCCc3cncn32)c(-c2ccccc2)c1 [CSN5i-3, 3-(Difluoromethyl)-N-(6-((5S,6S)-6-hydroxy-6,7,8,9-tetrahydro-5H-imidazo[1,5-a]azepin-5-yl)-[1,1′-biphenyl]-3-yl)-1-isopropyl-1H-pyrazole-5-carboxamide] | > 100 | 4.6 ± 0.5
